# Test results published in patent US20080194585A1, “Fungicidal Pyrazine Derivatives” (priority 2005, published 2008).
# Marks after values point to notes of the source that are not given here.
# Columns and labels:
# Plasmopara viticola = experiment: Test D: grape downy mildew, spray after inoculation of grape seedlings; format: in vivo
# From the text: Upon removal, disease ratings were made. […] A dash (-) indicates no test results.
# Phytophthora infestans = experiment: whole plant or invertebrate; format: in vivo
# Septoria tritici = experiment: Test J: wheat leaf blotch, preventive spray on wheat seedlings; format: in vivo
# From the text: A dash (-) indicates no test results.
# fusarium graminearium = experiment: Test I: wheat head scab, preventive spray on wheat seedlings
# Experimental: (the causal agent of wheat head scab) and incubated in a saturated atmosphere at 20° C. for 72 h, and then moved to a growth chamber at 22° C. for 5 days, after which disease ratings were made.
# [1] = system: Puccinia recondita f. sp. tritici; experiment: Test K: wheat leaf rust, preventive spray on wheat seedlings
# Botrytis cinerea = experiment: Test E: tomato botrytis, preventive spray on tomato seedlings
# Septoria nodorum = experiment: Test H: wheat glum blotch, preventive spray on wheat seedlings
# Experimental: (the causal agent of wheat glum blotch) and incubated in a saturated atmosphere at 20° C. for 48 h, and then moved to a growth chamber at 22° C. for 5 days, after which disease ratings were made.
# [2] = system: Erysiphe graminis f. sp. tritici; experiment: Test L: wheat powdery mildew, preventive spray on wheat seedlings
# Pythium aphanidermatum = experiment: Test A: bluegrass pythium blight, preventive spray on bluegrass seedlings
# Rhizoctonia oryzae = experiment: Test G: turf brown patch, preventive spray on creeping bent grass seedlings
# Experimental: (the causal agent of turf brown patch) and incubated in a saturated atmosphere at 27° C. for 24 h, and then moved to a growth chamber at 27° C. for 5 days, after which disease ratings were made.
# [3] = system: Colletotrichum orbiculare; experiment: Test B: cucumber Colletotrichum anthracnose, preventive spray on cucumber seedlings
Compound,Test D disease control rating (Plasmopara viticola; 200 ppm),Test F disease control rating (Phytophthora infestans; 200 ppm),Test J disease control rating (Septoria tritici; 200 ppm),Test I disease control rating (fusarium graminearium; 200 ppm),Test K disease control rating ([1]; 200 ppm),Test E disease control rating (Botrytis cinerea; 200 ppm),Test H disease control rating (Septoria nodorum; 200 ppm),Test L disease control rating ([2]; 200 ppm),Test A disease control rating (Pythium aphanidermatum; 200 ppm),Test G disease control rating (Rhizoctonia oryzae; 200 ppm),Test B disease control rating ([3]; 200 ppm),Test J disease control rating (Septoria tritici; 40 ppm (*)),Test K disease control rating ([1]; 40 ppm (*)),Test E disease control rating (Botrytis cinerea; 40 ppm (*)),Test H disease control rating (Septoria nodorum; 40 ppm (*)),Test L disease control rating ([2]; 40 ppm (*)),Test G disease control rating (Rhizoctonia oryzae; 40 ppm (*)),Test B disease control rating ([3]; 40 ppm (*)),also measured
CC(C)Cn1c(-c2c(F)cccc2F)c(Cl)nc(-c2ccnn2C)c1=O [compound 103],0%,0%,3%,0%,0%,0%,0%,0%,0%,0%,0%,,,,,,,,
O=c1c(-n2cncn2)nc(Cl)c(-c2c(F)cccc2F)n1Cc1ccccc1 [compound 105],0%,0%,98%,0%,100%,100%,64%,0%,0%,24%,0%,,,,,,,,
N#Cc1nc(Cl)c(-c2c(F)cccc2F)n(Cc2ccccc2)c1=O [compound 106],0%,0%,12%,0%,91%,0%,0%,94%,0%,0%,0%,,,,,,,,
CC(c1ccccc1)n1c(-c2c(F)cccc2F)c(Cl)nc(-n2cccn2)c1=O (stereo not shown) [compound 107],0%,0%,93%,69%,98%,0%,0%,0%,0%,0%,0%,,,,,,,,
CC(c1ccccc1)n1c(-c2c(F)cccc2F)c(Cl)nc(-n2cncn2)c1=O (stereo not shown) [compound 108],0%,0%,11%,0%,0%,56%,0%,0%,0%,0%,0%,,,,,,,,
CC(c1ccccc1)n1c(-c2c(F)cccc2F)c(Cl)nc(C#N)c1=O (stereo not shown) [compound 109],0%,0%,0%,0%,0%,0%,0%,0%,0%,0%,0%,,,,,,,,
CC(C)Cn1c(-c2c(Cl)ccc(Cl)c2Cl)c(Cl)nc(-n2cccn2)c1=O [compound 121],0%,0%,,0%,,,,,0%,,,100* %,99* %,100* %,99* %,0* %,44* %,91* %,
CCC(C)Cn1c(-c2c(F)cccc2F)c(Cl)nc(NN(C)C)c1=O (stereo not shown) [compound 134],0%,0%,,89%,,,,,0%,,,59* %,28* %,0* %,0* %,0* %,0* %,0* %,
CCC(C)Cn1c(-c2c(F)cccc2F)c(Cl)nc(NN2CCOCC2)c1=O (stereo not shown) [compound 135],0%,0%,,0%,,,,,0%,,,0* %,0* %,0* %,0* %,0* %,0* %,0* %,
Cc1cc(C)cc(-c2c(Cl)nc(-n3cncn3)c(=O)n2CC(C)C)c1 [compound 136],40%,58%,,0%,,,,,0%,,,28* %,0* %,0* %,0* %,0* %,0* %,0* %,
Cc1cc(C)cc(-c2c(Cl)nc(-n3cccn3)c(=O)n2CC(C)C)c1 [compound 137],0%,0%,30%,0%,,,,,0%,,,,0* %,0* %,0* %,0* %,0* %,0* %,
CCCCn1c(-c2c(F)cccc2F)c(Cl)nc(-n2cccn2)c1=O [compound 148],73%,0%,,0%,,,,,0%,,,100* %,97* %,99* %,100* %,98* %,81* %,47* %,
CC(C)Cn1c(-c2cc(C(F)(F)F)cc(C(F)(F)F)c2)c(Cl)nc(-n2cccn2)c1=O [compound 150],,,,,,,,,,,,0* %,0* %,0* %,0* %,0* %,0* %,0* %,Test D disease control rating (Plasmopara viticola; 40 ppm (*)): 0* %; Test F disease control rating (Phytophthora infestans; 40 ppm (*)): 0* %; Test I disease control rating (fusarium graminearium; 40 ppm (*)): 0* %; Test A disease control rating (Pythium aphanidermatum; 40 ppm (*)): 0* %
CC(C)Cn1c(-c2ccc(Cl)o2)c(Cl)nc(-n2cccn2)c1=O [compound 151],31%,33%,,0%,,,,,0%,,,12* %,19* %,98* %,0* %,0* %,0* %,0* %,
